Laboratory results as given in US8759051B2, “Control of contaminant microorganisms in fermentation processes with peroxygen-releasing compounds” (E I du Pont de Nemours and Company, priority 2010, dated 2014).
“And” between values parts separate entries of the source, which are not always exact repeats. Identical values can stand only once. Like-named read-outs stand apart in the source and are kept apart here.

Columns and labels:
[1] = system: lactic acid bacteria (LAB); assay: Inactivation of LAB in dilute molasses at pH 5.0 in the presence of yeast Ethanol Red (Example 5); type: cell-based
Method: Cultures of lactic acid bacteria (LAB) were prepared as in Example 1 above. Molasses was diluted 1:3.1 with water as in previous examples. The fermenting yeast Ethanol Red was cultured as in example 1. Populations of lactic acid bacteria and yeasts were determined by dilution plating on MRS agar and YPD agar, respectively. Overnight cultures of LAB were mixed to prepare a bacterial cocktail and inoculated into molasses (diluted 1:3.1 with water) adjusted to pH 5.0 to give approximately 6.11 Log CFU/ml. Cultures of yeasts were added to each tube at a concentration of approximately 6.80 Log CFU/ml. […] The amount of UHP added was 1450 ppm. The amount of percarbonate added was 1812 ppm. Tubes were then incubated at 32° C. with agitation. […] Amphotericin inhibits the growth of yeast, facilitating enumeration of bacteria only.

[2] = Stability of peroxygen-releasing compounds during storage at 40° C., iodometric titration of hydrogen peroxide (Example 4); type: physicochemical
Method: A dry oven was used to store samples of the peroxygen-releasing compounds at 40° C. The oven was allowed to equilibrate overnight. Two-gram duplicate samples of each of the following peroxygen-releasing compounds were dispensed into aluminum weighing dishes: sodium percarbonate (Alfa Aesar, Ward Hill, Mass.), sodium percarbonate FB 400 (Solvay Chemicals, Inc., Houston, Tex.), sodium percarbonate FB […] (Solvay Chemicals, Inc.), calcium peroxide (Sigma-Aldrich Co., St. […] After six days, samples were analyzed for levels of hydrogen peroxide using standard iodometric titration.

[3] = system: lactic acid bacteria (LAB); assay: Inactivation of LAB in molasses at pH 4.2 and 5.4 (Examples 2 and 3); type: cell-based
Method: Molasses (B&G Foods, Inc., Roseland, N.J.) was diluted 1 to 3.1 with water and sterilized as in Example 1. The prepared molasses was then divided into two lots and pH-adjusted using sulfuric acid to approximately pH 4.2 and 5.4, respectively. Cultures of LAB were prepared as in Example 1 and inoculated into the molasses to give approximately 1×10^6 CFU/ml. Sodium percarbonate (Alfa Aesar, Ward Hill, Mass.) was added to give 250, 500, and 750 ppm. […] Levels of LAB were enumerated by dilution and plating onto the surface of MRS agar followed by incubation at 32° C. LAB were enumerated at approximately 2 and 24 hours after the addition of sodium percarbonate.
Molasses was prepared as above and adjusted to pH 4.2 and 5.4 using sulfuric acid. Cultures of lactic acid bacteria were prepared as indicated in Example 1 and inoculated into the molasses to give approximately 10E6 CFU/ml. Levels of bacteria were confirmed by plating serial dilutions of the inoculated molasses onto the surface of MRS agar plates as in Example 1. Calcium peroxide was added at the levels indicated. Bacterial levels were enumerated at 2 and 24 hours following addition as described above.

[4] = before storage, duplicate samples
[5] = storage at 40° C. in dry oven, day 6, duplicate samples
[6] = storage at 40° C. in dry oven, day 14, duplicate samples

NC(N)=O.OO [Urea hydrogen peroxide, urea hydrogen peroxide, reference compound]
reduction of the population of LAB ([1]; 500 ppm as H2O2, 2 hours of incubation at 32° C., in presence of yeast): 3 log units | Log CFU/mL of LAB at hour indicated ([1]; 500 ppm as H2O2, hour 2, molasses pH 5.0, yeast approx. 6.80 Log CFU/ml, 32° C.): 3.36 Log CFU/mL | % H2O2 Day 0 [2, 4]: 34.53% and 34.56% | % Remaining H2O2 Day 0 [2, 4]: 100% | % H2O2 Day 0 ([2]; before storage, duplicate samples, listed as urea hydrogen peroxide): approximately 35% | % H2O2 Day 6 [2, 5]: 0.24% and 0.25% | % Remaining H2O2 Day 6 [2, 5]: <1% | % H2O2 Day 6 ([2]; storage at 40° C. in dry oven, day 6, duplicate samples, listed as urea hydrogen peroxide): below 1% | % H2O2 Day 14 [2, 6]: 0.08% | % Remaining H2O2 Day 14 [2, 6]: 0% | stability during storage (in words) ([2]; storage at 40° C., 6 and 14 days): not stable during storage

O=C([O-])[O-].O=C([O-])[O-].OO.OO.OO.[Na+].[Na+].[Na+].[Na+] [Sodium percarbonate (FB 400), sodium percarbonate]
% Remaining H2O2 Day 0 [2]: 100% | % Remaining H2O2 Day 6 [2]: 96% | % Remaining H2O2 Day 14 [2]: 96% | % H2O2 Day 0 [2, 4]: 23.81% and 23.66% | % H2O2 Day 6 [2, 5]: 22.80% and 22.74% | % H2O2 Day 14 [2, 6]: 22.80% and 22.67%

[Ca+2].[O-][O-] [Calcium peroxide, calcium peroxide]
% Remaining H2O2 Day 0 [2]: 100% | % Remaining H2O2 Day 6 [2]: 97% | % Remaining H2O2 Day 14 [2]: 97% | % H2O2 Day 0 [2, 4]: 34.71% and 34.73% | % H2O2 Day 6 [2, 5]: 33.66% and 33.60% | % H2O2 Day 14 [2, 6]: 33.62% and 33.57% | relative hydrogen peroxide retained during storage ([2]; storage at 40° C., day not given): 97% | CFU/ml LAB at hour indicated ([3]; molasses at pH 4.2, 197 ppm (69 ppm as H2O2), hour 2): 2.33 × 10^6 CFU/ml | CFU/ml LAB at hour indicated ([3]; molasses at pH 4.2, 197 ppm (69 ppm as H2O2), hour 24): 4.25 × 10^6 CFU/ml | CFU/ml LAB at hour indicated ([3]; molasses at pH 4.2, 393 ppm (138 ppm as H2O2), hour 2): 1.22 × 10^6 CFU/ml | CFU/ml LAB at hour indicated ([3]; molasses at pH 4.2, 393 ppm (138 ppm as H2O2), hour 24): 1.00 × 10^1 CFU/ml | CFU/ml LAB at hour indicated ([3]; molasses at pH 4.2, 590 ppm (207 ppm as H2O2), hour 2): 4.70 × 10^5 CFU/ml | CFU/ml LAB at hour indicated ([3]; molasses at pH 4.2, 590 ppm (207 ppm as H2O2), hour 24): <10 CFU/ml | CFU/ml LAB at hour indicated ([3]; molasses at pH 5.4, 197 ppm (69 ppm as H2O2), hour 2): 8.90 × 10^5 CFU/ml | CFU/ml LAB at hour indicated ([3]; molasses at pH 5.4, 197 ppm (69 ppm as H2O2), hour 24): 4.00 × 10^4 CFU/ml | CFU/ml LAB at hour indicated ([3]; molasses at pH 5.4, 393 ppm (138 ppm as H2O2), hour 2): 5.00 × 10^2 CFU/ml | CFU/ml LAB at hour indicated ([3]; molasses at pH 5.4, 393 ppm (138 ppm as H2O2), hour 24): below the detection limit | CFU/ml LAB at hour indicated ([3]; molasses at pH 5.4, 393 ppm (138 ppm as H2O2), hour 24, listed as Calcium percarbonate): <10 CFU/ml | CFU/ml LAB at hour indicated ([3]; molasses at pH 5.4, 590 ppm (207 ppm as H2O2), hour 2): 8.0×10^4 CFU/ml | CFU/ml LAB at hour indicated ([3]; molasses at pH 5.4, 590 ppm (207 ppm as H2O2), hour 2, listed as Calcium percarbonate): 8.00 × 10^4 CFU/ml | CFU/ml LAB at hour indicated ([3]; molasses at pH 5.4, 590 ppm (207 ppm as H2O2), hour 24): <10 CFU/ml | reductions in LAB ([3]; molasses pH 4.2, 197 ppm calcium peroxide, 2 hour): only slight reductions | reduction of LAB ([3]; molasses pH 4.2, 197 ppm calcium peroxide, 24 hours): approximately 1 log | reductions in LAB ([3]; molasses pH 4.2, 393 ppm calcium peroxide, 2 hour): only slight reductions | reduction of the population of LAB ([3]; molasses pH 4.2, 393 ppm calcium peroxide, 24 hours): more than 6 log units | reduction of the population of LAB ([3]; molasses pH 4.2, 590 ppm calcium peroxide, 2 hour): approximately 1 log | reduction of the population of LAB ([3]; molasses pH 4.2, 590 ppm calcium peroxide, 24 hours): more than 6 log units

[Mg+2].[O-][O-] [Magnesium peroxide, magnesium peroxide]
% Remaining H2O2 Day 0 [2]: 100% | % Remaining H2O2 Day 6 [2]: 100% | % H2O2 Day 0 [2, 4]: 10.66% and 10.72% | % H2O2 Day 6 [2, 5]: 10.66% and 10.68% | % H2O2 Day 14 [2, 6]: 10.64% and 10.65%

O=C([O-])[O-].O=C([O-])[O-].OO.OO.OO.[Na+].[Na+].[Na+].[Na+] [Sodium percarbonate (FB 400C), sodium percarbonate]
% Remaining H2O2 Day 0 [2]: 100% | % Remaining H2O2 Day 14 [2]: 96% | % H2O2 Day 0 [2, 4]: 26.34% and 26.25% | % H2O2 Day 6 [2, 5]: 25.37% and 25.45% | % H2O2 Day 14 [2, 6]: 25.35% and 25.27%
